Test system: rat liver proteome
Assay: Liver label-free quantitative proteomics
Type: in vivo
Conditions: for differentially expressed liver proteins vs vehicle control: adjusted p < 0.05 and Log2 FC > 0.5 or < −0.5
Experimental: Liver tissue were homogenized in PreOmics iST buffer (PreOmics) using a bead ruptor. […] Peptides were purified using PreOmics iST cartridges and vacuum-centrifuged to dryness. Peptides were subsequently reconstituted in 2 vol% ACN and 0.1 vol% formic acid for single-run LC–MS analysis. Peptides were analyzed using a Thermo EASY-nLC1200 coupled online to an Exploris 480 Mass Spectrometer equipped with a Nanospray Flex Ion Source integrated with a column oven (PRSO-V1, Sonation) and a FAIMS unit. Peptides were separated using a nonlinear gradient and analyzed by acquiring spectra through Data Independent Acquisition (DIA). Data was analyzed using Spectronaut V15.7.2 (Biognosys AG) direct DIA analysis using an isoform Rat database (UniProt downloaded 22.02.2021) consisting of 9,746 protein entries utilizing the Pulsar search engine. Analysis settings were maintained to factory settings and identification was set to 1% false discovery rate (FDR) for precursor and protein level. Additional information is provided in Supplementary M&M.
Data analysis was performed using R Statistical Software (version 4.3.0). Proteomics, transcriptomics and metabolomics expression changes were visualised using heatmaps showing log2 fold change relative to control. In the heatmaps missing values were highlighted in grey.
Proteomics Analysis. Liver tissue was placed in vials containing 1.4 mm zirconia beads and taken up in 500 µL of PreOmics iST buffer (PreOmics). In a cold room set to 4 °C, tissues were homogenized utilizing a bead Ruptor 12 by shaking for 30 seconds for a total of 5 times using ‘high’ setting. Lysate was normalized using BCA assay (Thermo Fisher Scientific), and subsequently incubated at 95 °C for 10 min for reduction, and alkylation of proteins. A total of 50 μg from each sample was subjected to enzymatic cleavage for 3 h by adding equal amounts of endoproteinase Lys-C and trypsin (ThermoFisher Scientific, # A40009) in a 1:50 (wt/wt) enzyme:protein ratio. De-salting and purification were performed according to the PreOmics iST protocol on a styrene divinylbenzene reversed-phase sulfonate sorbent. Purified peptides were vacuum-centrifuged to dryness and reconstituted in double-distilled water with 2 vol% ACN and 0.1 vol% formic acid (FA) for single-run LC-MS analysis.
Peptides were loaded onto a ReproSil-Pur 120 C18AQ 1.9 µm in-house packed to a 5 µm tip 75u ID × 360u × 50 cm column using Thermo EASY-nLC 1200 coupled online to an Exploris 480 Mass Spectrometer equipped with a Nanospray Flex Ion Source integrated with a column oven (PRSO-V1, Sonation) maintained at 50 °C. Peptides were separated using a nonlinear gradient: Mobile phase A was 0.1 vol% FA and 3 vol% acetonitrile (ACN) in water, Mobile phase B was 90 vol% ACN and 0.1 vol % FA. The gradient was operated at 250 nL/min flowing 3 vol% B for 3 min, 3 to 5 vol% B over 3 min, 5 to 17 vol % B over 120 min, 17 to 24 vol % B over 26 min, 24 to 30 vol% B over 14 min, 30 to 85 vol% B over 3 min.

Cn1cc2cc(-c3cc4[nH]nc(C5CC5)c4n(-c4ccc(OC(F)F)cc4)c3=O)ccc2n1 [AZ’9567]
-3.9: Cdo1 Log2FC (liver protein, 3mg/kg)
-5.2: Cdo1 Log2FC (liver protein, 10mg/kg)
around 357: differentially expressed liver proteins vs vehicle control (3 mg/kg BID)
0.8: Anpep Log2FC (liver protein, 3mg/kg) | Aqp8 Log2FC (liver protein, 3mg/kg) | Banf1 Log2FC (liver protein, 3mg/kg) | Dohh Log2FC (liver protein, 3mg/kg) | Gmpr Log2FC (liver protein, 3mg/kg) | Lyrm2 Log2FC (liver protein, 3mg/kg) | Mat2a Log2FC (liver protein, 3mg/kg) | Eif4ebp1 Log2FC (liver protein, 10mg/kg) | Gtpbp4 Log2FC (liver protein, 10mg/kg)
-1.1: Acly Log2FC (liver protein, 3mg/kg) | Als2 Log2FC (liver protein, 3mg/kg) | Baat Log2FC (liver protein, 10mg/kg) | Cyp2c23 Log2FC (liver protein, 10mg/kg)
-2.8: Scd1 Log2FC (liver protein, 3mg/kg)
1.3: Hmgcs1 Log2FC (liver protein, 3mg/kg) | Anpep Log2FC (liver protein, 10mg/kg) | Bhmt2 Log2FC (liver protein, 10mg/kg) | Dcakd Log2FC (liver protein, 10mg/kg) | Gnmt Log2FC (liver protein, 10mg/kg)
-1.0: Akap5 Log2FC (liver protein, 3mg/kg) | Gstm2 Log2FC (liver protein, 10mg/kg)
0.6: Dbnl Log2FC (liver protein, 3mg/kg) | Dkc1 Log2FC (liver protein, 3mg/kg) | Hsd17b7 Log2FC (liver protein, 3mg/kg) | Minpp1 Log2FC (liver protein, 3mg/kg) | Ncl Log2FC (liver protein, 3mg/kg) | Prmt1 Log2FC (liver protein, 3mg/kg) | Rmdn1 Log2FC (liver protein, 3mg/kg) | Coq4 Log2FC (liver protein, 10mg/kg) | Dkc1 Log2FC (liver protein, 10mg/kg)
1: Dmgdh Log2FC (liver protein, 3mg/kg)
0.7: Brix1 Log2FC (liver protein, 3mg/kg) | Cdh1 Log2FC (liver protein, 3mg/kg) | Gtpbp4 Log2FC (liver protein, 3mg/kg) | Kalrn Log2FC (liver protein, 3mg/kg) | Mybbp1a Log2FC (liver protein, 3mg/kg) | Paics Log2FC (liver protein, 3mg/kg) | Pcyt1a Log2FC (liver protein, 3mg/kg) | Pum3 Log2FC (liver protein, 3mg/kg) | Sh3glb1 Log2FC (liver protein, 3mg/kg) | Sirt2 Log2FC (liver protein, 3mg/kg) | Ube2f Log2FC (liver protein, 3mg/kg) | Ythdc1 Log2FC (liver protein, 3mg/kg) | mvd Log2FC (liver protein, 3mg/kg) | Banf1 Log2FC (liver protein, 10mg/kg) | Ca5a Log2FC (liver protein, 10mg/kg) | Cdh1 Log2FC (liver protein, 10mg/kg) | Cyp4a10 Log2FC (liver protein, 10mg/kg) | Fdft1 Log2FC (liver protein, 10mg/kg) | Gmpr Log2FC (liver protein, 10mg/kg)
-0.9: Ptprs Log2FC (liver protein, 3mg/kg) | Abhd1 Log2FC (liver protein, 10mg/kg) | Als2 Log2FC (liver protein, 10mg/kg) | Apoc1 Log2FC (liver protein, 10mg/kg) | Gimd1 Log2FC (liver protein, 10mg/kg)
17.1: Ccnd1 Log2FC (liver protein, 10mg/kg)
12.4: Ccnd1 Log2FC (liver protein, 3mg/kg)
1.7: A2m Log2FC (liver protein, 3mg/kg) | Aldh1a1 Log2FC (liver protein, 3mg/kg) | Bhmt Log2FC (liver protein, 3mg/kg) | Cyp4a10 Log2FC (liver protein, 3mg/kg) | Tspo Log2FC (liver protein, 3mg/kg) | Bhmt Log2FC (liver protein, 10mg/kg)
-1.8: Abhd1 Log2FC (liver protein, 3mg/kg) | Mettl26 Log2FC (liver protein, 3mg/kg)
6.2: Mt1 Log2FC (liver protein, 3mg/kg)
-0.7: Acbd4 Log2FC (liver protein, 3mg/kg) | Acsl1 Log2FC (liver protein, 3mg/kg) | Apeh Log2FC (liver protein, 3mg/kg) | Csad Log2FC (liver protein, 3mg/kg) | Fabp5 Log2FC (liver protein, 3mg/kg) | Fasn Log2FC (liver protein, 3mg/kg) | Gimd1 Log2FC (liver protein, 3mg/kg) | Rgn Log2FC (liver protein, 3mg/kg) | S1pr1 Log2FC (liver protein, 3mg/kg) | Sts Log2FC (liver protein, 3mg/kg) | Acsl1 Log2FC (liver protein, 10mg/kg) | Apeh Log2FC (liver protein, 10mg/kg) | Ctbs Log2FC (liver protein, 10mg/kg) | Gstm1 Log2FC (liver protein, 10mg/kg)
-1.6: Ugt2b1 Log2FC (liver protein, 3mg/kg) | Akap5 Log2FC (liver protein, 10mg/kg)
-1.3: Fads1 Log2FC (liver protein, 3mg/kg) | Tpmt Log2FC (liver protein, 3mg/kg) | Acbd4 Log2FC (liver protein, 10mg/kg) | Aox1 Log2FC (liver protein, 10mg/kg) | Csad Log2FC (liver protein, 10mg/kg)
-0.5: Comt Log2FC (liver protein, 3mg/kg) | Mospd1 Log2FC (liver protein, 3mg/kg) | Aldh16a1 Log2FC (liver protein, 10mg/kg)
1.4: Abcb1 Log2FC (liver protein, 3mg/kg) | Acsm2 Log2FC (liver protein, 3mg/kg) | Ces2c Log2FC (liver protein, 3mg/kg) | Cyp4a2 Log2FC (liver protein, 3mg/kg) | Aldh1a7 Log2FC (liver protein, 10mg/kg) | Gpcpd1 Log2FC (liver protein, 10mg/kg)
-1.5: Tat Log2FC (liver protein, 3mg/kg) | Carnmt1 Log2FC (liver protein, 10mg/kg)
-3.1: Cbs Log2FC (liver protein, 10mg/kg)
1.6: Asns Log2FC (liver protein, 3mg/kg) | Gnmt Log2FC (liver protein, 3mg/kg) | Abcb1 Log2FC (liver protein, 10mg/kg) | Alpl Log2FC (liver protein, 10mg/kg) | Fgr Log2FC (liver protein, 10mg/kg)
-1: Acaca Log2FC (liver protein, 3mg/kg) | Me1 Log2FC (liver protein, 3mg/kg) | Pklr.1 Log2FC (liver protein, 3mg/kg)
519: differentially expressed liver proteins vs vehicle control (highest dose (30 mg/kg BID))
1.2: Bhmt2 Log2FC (liver protein, 3mg/kg) | Gpcpd1 Log2FC (liver protein, 3mg/kg) | Tceanc2 Log2FC (liver protein, 3mg/kg) | Ces2c Log2FC (liver protein, 10mg/kg)
-0.6: Aldh16a1 Log2FC (liver protein, 3mg/kg) | Aox1 Log2FC (liver protein, 3mg/kg) | Ctbs Log2FC (liver protein, 3mg/kg) | Cyp2c23 Log2FC (liver protein, 3mg/kg) | Hexa Log2FC (liver protein, 3mg/kg) | Mettl7b Log2FC (liver protein, 3mg/kg) | Acly Log2FC (liver protein, 10mg/kg) | Acsl3 Log2FC (liver protein, 10mg/kg) | Acsl5 Log2FC (liver protein, 10mg/kg) | Comt Log2FC (liver protein, 10mg/kg)
-1.4: Carnmt1 Log2FC (liver protein, 3mg/kg) | Igf1 Log2FC (liver protein, 3mg/kg)
-0.8: Acsl3 Log2FC (liver protein, 3mg/kg) | Baat Log2FC (liver protein, 3mg/kg) | Enpep Log2FC (liver protein, 3mg/kg) | Gstm1 Log2FC (liver protein, 3mg/kg) | Gstm2 Log2FC (liver protein, 3mg/kg) | Lipa Log2FC (liver protein, 3mg/kg) | Txnrd2 Log2FC (liver protein, 3mg/kg) | Wdr45 Log2FC (liver protein, 3mg/kg) | Enpep Log2FC (liver protein, 10mg/kg)
0.9: Chid1 Log2FC (liver protein, 3mg/kg) | Fdft1 Log2FC (liver protein, 3mg/kg) | Idi1 Log2FC (liver protein, 3mg/kg) | Lrrc8d Log2FC (liver protein, 3mg/kg) | Mat1a Log2FC (liver protein, 3mg/kg) | Nob1 Log2FC (liver protein, 3mg/kg) | Rbm3 Log2FC (liver protein, 3mg/kg) | Aqp8 Log2FC (liver protein, 10mg/kg) | Asns Log2FC (liver protein, 10mg/kg) | Brix1 Log2FC (liver protein, 10mg/kg) | Dohh Log2FC (liver protein, 10mg/kg) | Gnl3 Log2FC (liver protein, 10mg/kg)
1.8: Alpl Log2FC (liver protein, 3mg/kg)
-1.2: Apoc1 Log2FC (liver protein, 3mg/kg) | Acaca Log2FC (liver protein, 10mg/kg)
1.1: Ca5a Log2FC (liver protein, 3mg/kg) | Eif4ebp1 Log2FC (liver protein, 3mg/kg) | Hfe Log2FC (liver protein, 3mg/kg) | Hnrnpa1 Log2FC (liver protein, 3mg/kg) | Mtr Log2FC (liver protein, 3mg/kg) | Orm1 Log2FC (liver protein, 3mg/kg) | Fabp4 Log2FC (liver protein, 10mg/kg)
-1.9: Mat2b Log2FC (liver protein, 3mg/kg)
3.3: A2m Log2FC (liver protein, 10mg/kg)
1.5: Aldh1a7 Log2FC (liver protein, 3mg/kg) | Fgr Log2FC (liver protein, 3mg/kg) | Aldh1a1 Log2FC (liver protein, 10mg/kg)
-2.9: Cbs Log2FC (liver protein, 3mg/kg)
1.0: Coq4 Log2FC (liver protein, 3mg/kg) | Dcakd Log2FC (liver protein, 3mg/kg) | Gnl3 Log2FC (liver protein, 3mg/kg) | Hmgn2 Log2FC (liver protein, 3mg/kg) | Chid1 Log2FC (liver protein, 10mg/kg)
0.5: Cfdp1 Log2FC (liver protein, 3mg/kg) | Fdps Log2FC (liver protein, 3mg/kg) | Pspc1 Log2FC (liver protein, 3mg/kg) | Thg1l Log2FC (liver protein, 3mg/kg) | Cfdp1 Log2FC (liver protein, 10mg/kg) | Dbnl Log2FC (liver protein, 10mg/kg) | Dmgdh Log2FC (liver protein, 10mg/kg)

— article PMC11272821, “Mechanistic safety assessment via multi-omic characterisation of systemic pathway perturbations following in vivo MAT2A inhibition” (Archives of Toxicology, 2024)
